Results: patent US20080145465A1, “Sesquiterpene lactone extract from artemisia leucodes for reducing inflammation and down-regulating pro-inflammatory gene expression” (priority 2006, published 2008)
≈ marks a conversion by molar mass, not a printed value. Where “and” joins values, the source holds several entries; their conditions need not be identical. Equal values may be shown once. Read-outs that look alike come from different tables or passages of the source.

Legend:
[1] = system: nitric oxide (NO) production from RAW macrophages; assay: Griess assay for NO production by LPS-stimulated RAW macrophages; assay type: cell-based, murine; conditions: for NO production (relative to control), mean ± SE: LPS 1 μg/mL, 24 hours, n = 8, % of control; for IC50: read-out: IC50, inhibition of NO production
Description: RAW 264.7 murine monocyte/macrophages (ATCC TIB-71) were maintained in Dulbecco's Modified Eagle Medium (D-MEM, Invitrogen Corp., Carlsbad, Calif.) supplemented with 10% fetal bovine serum (FBS, Invitrogen Corp., Carlsbad, Calif.) and 1% streptomycin and were kept in a humidified 37° C. incubator with 5% CO2. Cells were subcultured by scraping when plates reached 90% confluency with a 1:5 ratio.
Down-regulation of various pro-inflammatory genes including iNOS, IL1β, and TNF-α can reduce nitric oxide production by macrophages. In order to confirm that changes in pro-inflammatory gene expression were affecting cellular function, the Griess assay was performed to indirectly measure nitric oxide production by LPS-induced macrophages by measuring nitrite (Misko et al., 1993). For the assay, RAW cells were plated in a 24-well plate at a minimum density of 0.4×10^6 cells/well and grown for 24 hours. A stock solution of AL-1 was created by completely dissolving dry extract as in Example 1 in 95% ethanol. Cells were stimulated with 1 μg/mL LPS with simultaneous addition of AL-1 (10-100 μg/mL), aspirin (10 mM), or vehicle control (0.5% ethanol), maintaining a final concentration of 0.5% ethanol for every treatment. After 24 hours, conditioned media (50 μl) was removed and immediately mixed with 100 μl of Griess reagent (10% sulfanilamide, 1% naphthalene-ethylenediamine dihydrochloride in 5% H3PO4, all from Sigma, St. Louis, Mo.). After incubation for 15 minutes at room temperature, the samples were read at 550 nm using a microplate spectrophotometer (Molecular Devices, Sunnyvale, Calif.). Data for each treatment were normalized based on results from an MTS cell proliferation assay.
A CellTiter 96 assay kit (Promega Corp. Madison, Wis.) was used to determine the relative number of viable cells remaining after incubation with treatments. For the assay, old media containing treatments or controls was removed from the 96-well plates and replaced with 100 μL fresh media per well. Next, 20 μL MTS/PMS reagent ([3-(4,5-dimethylthiazol-2-yl)-5-(3-carboxymethoxyphenyl)-2-(4-sulfophenyl)-2H-tetrazolium plus phenazine methosulfate) was added to each well followed by a three hour incubation period at 37° C., 5% CO2. Plates were read using a microplate reader (Molecular Devices, Sunnyvale, Calif.) at 490 nm. A blank row corrected for background noise and data was expressed as a percent of the LPS control. Each treatment was tested on three different plates with 8 wells on each plate for a total of 24 wells.

COX-2 = target: T1, COX-2 (Ovis aries, UniProt P79208); assay: Colorimetric COX inhibitor screening assay, COX-2; assay type: biochemical, ovine
T1 construct: purchased Cayman Chemical Company
T1 sequence (P79208 17-603): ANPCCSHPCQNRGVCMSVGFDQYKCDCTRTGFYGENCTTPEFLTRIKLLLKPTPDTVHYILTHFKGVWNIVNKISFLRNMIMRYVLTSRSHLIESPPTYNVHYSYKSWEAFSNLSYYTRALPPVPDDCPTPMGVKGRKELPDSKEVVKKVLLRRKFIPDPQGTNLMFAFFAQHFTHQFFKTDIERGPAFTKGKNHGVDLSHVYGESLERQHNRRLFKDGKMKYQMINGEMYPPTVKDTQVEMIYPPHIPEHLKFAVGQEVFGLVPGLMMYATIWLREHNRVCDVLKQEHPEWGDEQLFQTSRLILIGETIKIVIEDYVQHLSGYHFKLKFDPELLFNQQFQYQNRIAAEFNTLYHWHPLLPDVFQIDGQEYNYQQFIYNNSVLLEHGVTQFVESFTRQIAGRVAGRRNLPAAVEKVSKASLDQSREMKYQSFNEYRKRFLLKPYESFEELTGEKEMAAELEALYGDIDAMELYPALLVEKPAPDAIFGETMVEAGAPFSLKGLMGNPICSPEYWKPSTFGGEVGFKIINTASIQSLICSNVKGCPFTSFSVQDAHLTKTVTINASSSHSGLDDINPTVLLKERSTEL
Description: An ovine COX inhibitor screening assay (Cayman Chemical Company, Ann Arbor, Mich.) was used to measure inhibition of purified COX-1 and COX-2. This assay measures the peroxidase component of cyclooxygenases colorimetrically by monitoring the appearance of oxidized N,N,N′,N′-tetramethyl-p-phenylenediamine (TMPD) at 590 nm. Tablets of Vioxx (rofecoxib; Merck & Co., Inc., Whitehouse Station, N.J.) were ground and dissolved in methanol (1 mg/mL) to use as a positive control. AL-1, leukomisin, and austricin were also dissolved in methanol at 1 mg/mL. The assay was performed following manufacturer instructions. Vioxx, vehicle (100% initial activity), or treatments were added to a 96-well plate along with 180 μL assay mixture provided by the manufacturer containing 150 μL assay buffer, 10 μL heme, and 10 μL enzyme (COX-1 or COX-2). A background correction row received no enzyme and 10 μL additional assay buffer. After 5 min incubation at room temp, 20 μL of a colorimetric substrate solution containing TMPD and 20 μL arachadonic acid diluted in assay buffer were added to the plate. The plate was incubated for 5 min and the absorbance was read at 590 nm using a microplate reader (Molecular Devices, Sunnyvale, Calif.). To calculate percent inhibition, average absorbance was calculated for each sample (n=3). The background blank well absorbance was subtracted from each sample.
[(100% Initial activity-Blank)−(Treatment-Blank)/(100% Initial activity-Blank)]*100

[2] = read-out: percent inhibition of COX-2 enzyme activity, mean ± SE

SMILES	NO production (relative to control), mean ± SE ([1]; 20 μg/ml) [%]	NO production (relative to control), mean ± SE ([1]; 50 μg/ml) [%]	NO production (relative to control), mean ± SE ([1]; 100 μg/ml) [%]	IC50 ([1]; Mus musculus, Macrophage)	IC50 (COX-2; IC50, COX-2 inhibition, purified ovine COX-2) [µM]	IC50 (COX-2; IC50, COX-2 inhibition, purified ovine COX-2, molar value in brackets) [µM]	inhibition at 45 µg/mL (COX-2; [2]) [%]	inhibition at 115 µg/mL (COX-2; [2]) [%]	inhibition at 225 µg/mL (COX-2; [2]) [%]	IC50, inhibition of NO production ([1]; RAW macrophages elicited with LPS) [µg/mL]	IC50 ([1]; RAW macrophages elicited with LPS, molar value in brackets) [µM]	percent inhibition of COX-2 enzyme activity, mean ± SE (COX-2; 45 μg/ml) [%]	percent inhibition of COX-2 enzyme activity, mean ± SE (COX-2; 115 μg/ml) [%]	percent inhibition of COX-2 enzyme activity, mean ± SE (COX-2; 225 μg/ml) [%]	IC50, COX-2 inhibition (COX-2; purified ovine COX-2) [µg/mL]	IC50 (COX-2; purified ovine COX-2, read-out: IC50, COX-2 inhibition) [µM]
CC1=CC(=O)C2=C(C)C[C@H](O)[C@@H]3[C@H](OC(=O)[C@H]3C)[C@@H]12 (single isomer, unassigned) [austricin]	89 ± 1	89 ± 1	84 ± 2	440 µg/mL and 1.68 mM	1970	2000	19 ± 1	29 ± 2	31 ± 1	–	–	–	–	–	–	–
CC1=CC(=O)C2=C(C)CC[C@@H]3[C@H](OC(=O)[C@H]3C)[C@@H]12 [leukomisin]	82 ± 4	72 ± 1	64 ± 2	–	–	–	–	–	–	160	650	34 ± 1	51 ± 3	65 ± 5	129 (≈ 524 µM)	524
